This is an account of results in patent US20230210999A1, “TARGETED PROTEASE DEGRADATION (TED) PLATFORM” (EUBULUS BIOTHERAPEUTICS INC., priority 2020, published 2023).

A value given as a limit tells only on which side of the number the result lay.

The test system of the first test is PC-3. The experiment in a line: Cell proliferation experiment, PC-3. As to conditions: Homo sapiens, PC-3, PC-3 cells; read-out: Inhibitory activity IC50 on PC-3. The test is classed as cell-based, human. On the procedure: Reagents: RPMI-1640 medium, McCoy's 5A medium, IMDM medium, MEM medium, L-15 medium, fetal bovine serum. Penicillin-Streptomycin double antibody, trypsin, etc., 2-mercaptoethanol, NEAA, pyruvate, etc.
The cells were cultured in conventional ways, and the cells should be passed at least 2 generations before plating. Cells at the logarithmic growth phase were collected, prepared into single cell suspensions and counted. The concentration of cells was adjusted to the desired concentration, and cells were inoculated into a 96-well cell culture plate at 100 μl per well. 100 μL of complete medium of the test compound were added to each well, set up 2 duplicate wells for each concentration, and diluted with a 5-fold gradient, and continued to culture for 72 h. All cells were subjected to IC50 test for corresponding samples. The experimental results are shown in Test Example 4.
The fluorescence intensity of each well was detected using the Alarm blue method, and IC50 was calculated.
IC50 was calculated according to the following formula:
Y=Max+(Min−Max)/[1+(X/IC50)×Slope]
wherein Min, Max and Slope represent the minimum, maximum and slope respectively.
For `CNC(=O)c1ccccc1Nc1nc(Nc2ccc(N3CCN(C(=O)NCCCCOCCCCNC#Cc4cccc5c4CN(C4CCC(=O)NC4=O)C5=O)CC3)cc2)ncc1Cl` (stereo not shown) [UB-181098], the IC50 (as a rule, the concentration that inhibits the measured activity by half) lay in the range of 100 to 1000 nM.

Turning to `CNC(=O)c1ccccc1Nc1nc(Nc2ccc(N3CCN(C(=O)NC4CCC(NCCCCOCC(=O)Nc5ccc6c(c5)CN(C5CCC(=O)NC5=O)C6=O)CC4)CC3)cc2)ncc1Cl` (stereo not shown) [UB-181109], the IC50 is greater than 1000 nM.

For `CNC(=O)c1ccccc1Nc1nc(Nc2ccc(N3CCN(C(=O)NCCCOCCNCCC#Cc4ccc5c(c4)CN(C4CCC(=O)NC4=O)C5=O)CC3)cc2)ncc1Cl` (stereo not shown) [UB-181110], the IC50 is greater than 1000 nM.

Turning to `CNC(=O)c1ccccc1Nc1nc(Nc2ccc(N3CCN(C(=O)NCCCOCCNCCC#Cc4cccc5c4CN(C4CCC(=O)NC4=O)C5=O)CC3)cc2)ncc1Cl` (stereo not shown) [UB-181111], the IC50 lay in the range of 100 to 1000 nM.

Consider `CNC(=O)c1ccccc1Nc1nc(Nc2ccc(N3CCN(C(=O)N[C@H]4CC[C@@H](NCCOCCC#Cc5cccc6c5CN(C5CCC(=O)NC5=O)C6=O)CC4)CC3)cc2)ncc1C#N` (stereo partly shown) [UB-181112], for which the IC50 is greater than 1000 nM.

As for `CNC(=O)c1ncccc1Nc1nc(Nc2ccc(N3CCN(C(=O)N[C@H]4CC[C@@H](NCCOCCC#Cc5cccc6c5CN(C5CCC(=O)NC5=O)C6=O)CC4)CC3)cc2)ncc1C#N` (stereo partly shown) [UB-181116], the IC50 is greater than 1000 nM.

The same test, now with this note: PC-3 cells; read-out: Inhibitory activity IC50 on PC-3.
With `CNC(=O)c1ccccc1Nc1nc(Nc2ccc(N3CCN(C(=O)N[C@H]4CC[C@@H](NCCOCCC#Cc5ccc6c(c5)CN(C5CCC(=O)NC5=O)C6=O)CC4)CC3)cc2)ncc1C#N` (stereo partly shown) [UB-181114], the IC50 is greater than 1000 nM.

The next test has as its system MDA-MB-231 cells. The experiment in a line: Cell proliferation experiment, MDA-MB-231. As to conditions: Homo sapiens, MDA-MB-231, MDA-MB-231 cells; read-out: Inhibitory activity IC50 on MDA-MB-231. The test is classed as cell-based, human. In short, it runs like this:
(§1)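 Single-cell suspensions from log-phase cultures, passaged at least 2 generations, are seeded into 96-well plates and given compound in complete medium. Following 72 h, fluorescence with Alamar blue is recorded and fitted for IC50.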
Turning to `CNC(=O)c1ccccc1Nc1nc(Nc2ccc(N3CCN(C(=O)NCCCCOCCCCNC#Cc4cccc5c4CN(C4CCC(=O)NC4=O)C5=O)CC3)cc2)ncc1Cl` (stereo not shown) [UB-181098], the IC50 is greater than 1000 nM.

Turning to `CNC(=O)c1ccccc1Nc1nc(Nc2ccc(N3CCN(C(=O)NC4CCC(NCCCCOCC(=O)Nc5ccc6c(c5)CN(C5CCC(=O)NC5=O)C6=O)CC4)CC3)cc2)ncc1Cl` (stereo not shown) [UB-181109], the IC50 is greater than 1000 nM.

For the compound `CNC(=O)c1ccccc1Nc1nc(Nc2ccc(N3CCN(C(=O)NCCCOCCNCCC#Cc4ccc5c(c4)CN(C4CCC(=O)NC4=O)C5=O)CC3)cc2)ncc1Cl` (stereo not shown) [UB-181110], the IC50 was greater than 1000 nM.

As for `CNC(=O)c1ccccc1Nc1nc(Nc2ccc(N3CCN(C(=O)NCCCOCCNCCC#Cc4cccc5c4CN(C4CCC(=O)NC4=O)C5=O)CC3)cc2)ncc1Cl` (stereo not shown) [UB-181111], the IC50 was greater than 1000 nM.

Turning to `CNC(=O)c1ccccc1Nc1nc(Nc2ccc(N3CCN(C(=O)N[C@H]4CC[C@@H](NCCOCCC#Cc5cccc6c5CN(C5CCC(=O)NC5=O)C6=O)CC4)CC3)cc2)ncc1C#N` (stereo partly shown) [UB-181112], the IC50 was greater than 1000 nM.

Regarding `CNC(=O)c1ncccc1Nc1nc(Nc2ccc(N3CCN(C(=O)N[C@H]4CC[C@@H](NCCOCCC#Cc5cccc6c5CN(C5CCC(=O)NC5=O)C6=O)CC4)CC3)cc2)ncc1C#N` (stereo partly shown) [UB-181116], the IC50 is greater than 1000 nM.

Staying with this test, now noted: MDA-MB-231 cells; read-out: Inhibitory activity IC50 on MDA-MB-231.
With `CNC(=O)c1ccccc1Nc1nc(Nc2ccc(N3CCN(C(=O)N[C@H]4CC[C@@H](NCCOCCC#Cc5ccc6c(c5)CN(C5CCC(=O)NC5=O)C6=O)CC4)CC3)cc2)ncc1C#N` (stereo partly shown) [UB-181114], the IC50 was greater than 1000 nM.

For the next test, the system named is MV4;11 cells. The experiment in a line: Cell proliferation experiment (Alamar blue, 72 h), MV4;11. The conditions noted are these: Homo sapiens, MV4-11, MV4;11 cells; read-out: Inhibitory activity IC50 on MV4;11. It counts as cell-based, human. The procedure, abridged:
as §1
For the compound `CNC(=O)c1ccccc1Nc1nc(Nc2ccc(N3CCN(C(=O)NCCCCOCCCCNC#Cc4cccc5c4CN(C4CCC(=O)NC4=O)C5=O)CC3)cc2)ncc1Cl` (stereo not shown) [UB-181098], the IC50 is less than 10 nM.

Consider `CNC(=O)c1ccccc1Nc1nc(Nc2ccc(N3CCN(C(=O)NC4CCC(NCCCCOCC(=O)Nc5ccc6c(c5)CN(C5CCC(=O)NC5=O)C6=O)CC4)CC3)cc2)ncc1Cl` (stereo not shown) [UB-181109], for which the IC50 lay within 10 to 100 nM.

As for `CNC(=O)c1ccccc1Nc1nc(Nc2ccc(N3CCN(C(=O)NCCCOCCNCCC#Cc4ccc5c(c4)CN(C4CCC(=O)NC4=O)C5=O)CC3)cc2)ncc1Cl` (stereo not shown) [UB-181110], the IC50 lay within 10 to 100 nM.

Regarding `CNC(=O)c1ccccc1Nc1nc(Nc2ccc(N3CCN(C(=O)NCCCOCCNCCC#Cc4cccc5c4CN(C4CCC(=O)NC4=O)C5=O)CC3)cc2)ncc1Cl` (stereo not shown) [UB-181111], the IC50 was less than 10 nM.

With `CNC(=O)c1ccccc1Nc1nc(Nc2ccc(N3CCN(C(=O)N[C@H]4CC[C@@H](NCCOCCC#Cc5cccc6c5CN(C5CCC(=O)NC5=O)C6=O)CC4)CC3)cc2)ncc1C#N` (stereo partly shown) [UB-181112], the half-inhibitory concentration (IC50) was less than 10 nM.

In the case of `CNC(=O)c1ccccc1Nc1nc(Nc2ccc(N3CCN(C(=O)N[C@H]4CC[C@@H](NCCOCCC#Cc5ccc6c(c5)CN(C5CCC(=O)NC5=O)C6=O)CC4)CC3)cc2)ncc1C#N` (stereo partly shown) [UB-181114], the IC50 was less than 10 nM.

For the compound `CNC(=O)c1ncccc1Nc1nc(Nc2ccc(N3CCN(C(=O)N[C@H]4CC[C@@H](NCCOCCC#Cc5cccc6c5CN(C5CCC(=O)NC5=O)C6=O)CC4)CC3)cc2)ncc1C#N` (stereo partly shown) [UB-181116], the IC50 was in the range of 100 to 1000 nM.

The subject of a further test is NCIH82 cells. As to the kind of experiment: Cell proliferation experiment, NCI-H82. It counts as cell-based, human. As to conditions: Homo sapiens, NCI-H82, NCI-H82 cells; read-out: Inhibitory activity IC50 on NCI-H82. In short, it runs like this:
as §1
Regarding `CNC(=O)c1ccccc1Nc1nc(Nc2ccc(N3CCN(C(=O)NCCCCOCCCCNC#Cc4cccc5c4CN(C4CCC(=O)NC4=O)C5=O)CC3)cc2)ncc1Cl` (stereo not shown) [UB-181098], the IC50 lay in the range of 10 to 100 nM.

`CNC(=O)c1ccccc1Nc1nc(Nc2ccc(N3CCN(C(=O)NC4CCC(NCCCCOCC(=O)Nc5ccc6c(c5)CN(C5CCC(=O)NC5=O)C6=O)CC4)CC3)cc2)ncc1Cl` (stereo not shown) [UB-181109]: the IC50 lay within 100 to 1000 nM.

Turning to `CNC(=O)c1ccccc1Nc1nc(Nc2ccc(N3CCN(C(=O)NCCCOCCNCCC#Cc4ccc5c(c4)CN(C4CCC(=O)NC4=O)C5=O)CC3)cc2)ncc1Cl` (stereo not shown) [UB-181110], the IC50 is 100 to 1000 nM.

Take `CNC(=O)c1ccccc1Nc1nc(Nc2ccc(N3CCN(C(=O)NCCCOCCNCCC#Cc4cccc5c4CN(C4CCC(=O)NC4=O)C5=O)CC3)cc2)ncc1Cl` (stereo not shown) [UB-181111]: the IC50 lay in the range of 10 to 100 nM.

As for `CNC(=O)c1ccccc1Nc1nc(Nc2ccc(N3CCN(C(=O)N[C@H]4CC[C@@H](NCCOCCC#Cc5cccc6c5CN(C5CCC(=O)NC5=O)C6=O)CC4)CC3)cc2)ncc1C#N` (stereo partly shown) [UB-181112], the IC50 lay within 100 to 1000 nM.

For `CNC(=O)c1ccccc1Nc1nc(Nc2ccc(N3CCN(C(=O)N[C@H]4CC[C@@H](NCCOCCC#Cc5ccc6c(c5)CN(C5CCC(=O)NC5=O)C6=O)CC4)CC3)cc2)ncc1C#N` (stereo partly shown) [UB-181114], the IC50 fell in the range of 100 to 1000 nM.

`CNC(=O)c1ncccc1Nc1nc(Nc2ccc(N3CCN(C(=O)N[C@H]4CC[C@@H](NCCOCCC#Cc5cccc6c5CN(C5CCC(=O)NC5=O)C6=O)CC4)CC3)cc2)ncc1C#N` (stereo partly shown) [UB-181116]: the IC50 is greater than 1000 nM.
